Measured values: patent US11661398B2, “Cellular transport system for transferring a sulfonic acid construct carrying a cargo into the cytoplasm of a cell” (Scientist of Fortune, S.A., priority 2017, dated 2023)
“Also recorded” adds a separate entry of the source.

Tests used:
PnGGT ΔN24 [1] = target: T1, PnGGT ΔN24 (Pseudomonas nitroreducens, UniProt E0D5C2); experiment: Kinetic measurements with purified PnGGT ΔN24; format: biochemical; conditions: purified enzyme, 50 mM Tris-HCl (pH 9.0)
Procedure: (§1) For the experiments relating to the sulfonate based synthetic transport system, purification of PnGGT ΔN24 and PnGGT ΔN24 D405N containing an N-terminal 6×His-tag was performed according to previous reports (Van Dyke et al., 1992) using Ni-NTA Superflow (Qiagen, Hilden, Germany). For kinetic studies, PnGGT variants were purified with the aid of the 6×His-tag located at the N-terminal end of the large subunit following the same procedure. To exchange the buffer, purified proteins were dialyzed against 50 mM Tris/HCl (pH 7.0).
(§2) To determine the kinetic parameters of PnGGT ΔN24 and PnGGT ΔN24 D405N the purified enzymes were preincubated in 50 mM Tris-HCl (pH 9.0). To start the reaction, varying concentrations of the substrates L-glutamic acid γ-(3-carboxy-4-nitroanilide) or sulfobutanoyl-p-nitroanilide were added to the mixtures. The results were evaluated using GraphPad Prism (GraphPad Software, La Jolla, Calif., USA).

PnGGT ΔN24 [2] = target: T1, PnGGT ΔN24; experiment: Colorimetric GGT assay in whole cell lysates; format: biochemical; conditions: whole cell lysate, 4 mM substrate, 50 mM Tris-HCl (pH 9.0), 410 nm
From the text: (§3) To test for the desired activity a colorimetric enzyme assay was chosen and the substrate sulfobutanoyl-p-nitroanilide was synthesized for this purpose. Hydrolysis of this colorless substrate by a GGT variant into sulfobutanoic acid and the yellow dye 4-nitroaniline can be quantified photometrically at 410 nm. For that, cytoplasmic GGT variants containing an N-terminal 6×His-tag were first expressed from E. coli (EcGGT ΔN24) and Pseudomonas nitroreducens (PnGGT ΔN24), as well as EcGGT ΔN24 D433N and the corresponding mutant variant PnGGT ΔN24 D405N. Position D405 of PnGGT was identified to fulfill the same function as position D433 of EcGGT by sequence alignment and homology modeling between EcGGT and PnGGT. Then the ability of whole cell lysates containing the respective enzymes was tested to hydrolyze L-glutamic acid γ-(3-carboxy-4-nitroanilide) or sulfobutanoyl-p-nitroanilide.

PnGGT ΔN24 D405N [3] = target: T2, PnGGT ΔN24 D405N (Pseudomonas nitroreducens, UniProt E0D5C2, D405N); experiment: Kinetic measurements with purified PnGGT ΔN24 D405N; format: biochemical; conditions: purified enzyme, 50 mM Tris-HCl (pH 9.0)
T2 sequence (E0D5C2 with tags, fused parts or gaps D405N): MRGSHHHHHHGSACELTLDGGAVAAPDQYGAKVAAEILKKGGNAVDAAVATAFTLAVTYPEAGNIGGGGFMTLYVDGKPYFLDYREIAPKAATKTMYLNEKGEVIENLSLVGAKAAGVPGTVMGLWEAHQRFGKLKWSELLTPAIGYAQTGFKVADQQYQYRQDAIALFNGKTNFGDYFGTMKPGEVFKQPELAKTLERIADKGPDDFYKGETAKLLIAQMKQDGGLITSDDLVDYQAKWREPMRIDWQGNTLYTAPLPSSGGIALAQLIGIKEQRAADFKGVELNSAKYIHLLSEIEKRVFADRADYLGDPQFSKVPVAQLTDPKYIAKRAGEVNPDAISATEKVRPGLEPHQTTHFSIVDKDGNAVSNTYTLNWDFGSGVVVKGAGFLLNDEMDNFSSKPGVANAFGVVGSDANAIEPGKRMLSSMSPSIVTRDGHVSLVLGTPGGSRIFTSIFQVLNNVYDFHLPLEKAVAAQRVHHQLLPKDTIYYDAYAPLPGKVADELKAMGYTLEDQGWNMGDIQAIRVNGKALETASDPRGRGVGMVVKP
Procedure: as §1, §2

EcGGT ΔN24 = target: T3, EcGGT ΔN24 (Escherichia coli, UniProt P18956); experiment: Colorimetric GGT assay in whole cell lysates; format: biochemical, E. coli; conditions: whole cell lysate, 4 mM substrate, 50 mM Tris-HCl (pH 9.0), 410 nm
T3 construct: made in house; host or cells: E. coli (pACT3 plasmid, IPTG induction)
From the text: as §3

EcGGT ΔN24 D433N = target: T4, EcGGT ΔN24 D433N (Escherichia coli, UniProt P18956, D433N); experiment: Colorimetric GGT assay in whole cell lysates; format: biochemical, E. coli; conditions: whole cell lysate, 4 mM substrate, 50 mM Tris-HCl (pH 9.0), 410 nm
T4 construct: made in house; host or cells: E. coli (pACT3 plasmid); assayed in whole cell lysate
From the text: as §3

PnGGT ΔN24 D405N [4] = target: T2, PnGGT ΔN24 D405N; experiment: Colorimetric GGT assay in whole cell lysates / cell free extracts; format: biochemical; conditions: cell free extracts of strain TK018, 2 mM substrate (FIG. 22a)
From the text: FIG. 22: Identification of GGT* activity and refactoring of the ssuABC operon. […] The release of 4-nitroaniline was quantified by measuring the absorption at 410 nm. (b) Plasmid map of the three-dimensional RBS-library for refactoring the ssuABC operon using 144 RBS variants per gene. RBS library sequences are underlined. Arrows point towards the final RBS sequences observed in plasmid pSsuABC. […] (e) Growth of strain TK088[pSsuABC]transformed with the empty vector pACT3 (black circles) or plasmid pPnGGT* (white circles) in liquid MS minimal medium supplemented with 0.5% glucose, 1 mM MgSO4, 0.4 mM L-leucine, 0.5 mM IPTG, 100 ng ml^−1 aTc and 0.5 mM sulfobutanoyl-L-histidine. Bars and dots from panels (a), (d) and (e) represent the average of three independent measurements with standard deviations shown as error bars.
To test for the desired activity a colorimetric enzyme assay was chosen and the substrate sulfobutanoyl-p-nitroanilide was synthesized for this purpose. Hydrolysis of this colorless substrate by a GGT variant into sulfobutanoic acid and the yellow dye 4-nitroaniline can be quantified photometrically at 410 nm. For that, cytoplasmic GGT variants containing an N-terminal 6×His-tag were first expressed from E. coli (EcGGT ΔN24) and Pseudomonas nitroreducens (PnGGT ΔN24), as well as EcGGT ΔN24 D433N and the corresponding mutant variant PnGGT ΔN24 D405N. […]

PnGGT* P505T = experiment: Sulfobutanoyl-L-leucine hydrolysis kinetics coupled to branched-chain amino acid kit; format: biochemical, Pseudomonas nitroreducens; conditions: 50 mM Tris/HCl (pH 7.0)
Procedure: (§4) FIG. 32. […] Due to the unknown composition of the kit, absolute quantification of leucine was not possible and the results relating to reaction rates are plotted as changes in absorbance over time. […] (b) Kinetics of PnGGT* P505T were determined with the same substrate concentrations and buffer as for PnGGT*. […] Fitting of the kinetic data was performed with SigmaPlot v.12.2. Dots represent the average of three independent measurements with standard deviations shown as error bars.
(§5) For that, 50 μL of the BCAA reaction mix containing 46 μL BCAA assay buffer, 2 μL BCAA enzyme mix and 2 μL WST substrate mix were pre-incubated with 35 μL BCAA assay buffer and 5 μL purified PnGGT* (final concentration approximately 0.05 mg mL-1) at 37° C. […] The reaction rate of PnGGT* variants was determined as the specific difference in absorption over time (ΔA (450 nm) per minute per mg of purified protein).

PnGGT* D385Y = experiment: as above; format: biochemical, Pseudomonas nitroreducens; conditions: 50 mM Tris/HCl (pH 7.0), 10-1000 μM substrate
Procedure: as §4, §5

PnGGT* = target: T5, PnGGT* (Pseudomonas nitroreducens, UniProt E0D5C2, D405N); experiment: as above; format: biochemical; conditions: 50 mM Tris/HCl (pH 7.0)
T5 sequence (E0D5C2 25-556 D405N limits assumed): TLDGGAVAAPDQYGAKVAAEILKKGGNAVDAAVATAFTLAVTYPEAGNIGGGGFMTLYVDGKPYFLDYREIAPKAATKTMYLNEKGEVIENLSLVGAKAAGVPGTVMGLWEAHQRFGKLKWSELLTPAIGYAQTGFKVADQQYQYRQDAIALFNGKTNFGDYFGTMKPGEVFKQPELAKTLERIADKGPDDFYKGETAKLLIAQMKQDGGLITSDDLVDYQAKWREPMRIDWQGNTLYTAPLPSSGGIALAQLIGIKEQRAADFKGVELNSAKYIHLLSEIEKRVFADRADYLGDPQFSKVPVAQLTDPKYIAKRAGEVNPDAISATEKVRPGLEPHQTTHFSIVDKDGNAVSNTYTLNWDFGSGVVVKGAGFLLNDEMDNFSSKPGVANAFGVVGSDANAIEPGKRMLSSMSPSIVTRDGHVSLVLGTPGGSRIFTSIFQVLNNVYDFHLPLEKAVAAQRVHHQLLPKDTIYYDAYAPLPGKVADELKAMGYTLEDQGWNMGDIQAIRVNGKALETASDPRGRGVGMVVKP
Procedure: as §4, §5

BW25113 ΔleuB (TK080) = experiment: Growth on different sulfur sources; format: cell-based, E. coli; conditions: 1 mM sulfur source, minimal medium, 0.5% glucose, 0.4 mM leucine
Procedure: FIG. 21: Growth of E. coli on sulfonates. Strains TK080 (a; BW25113 ΔleuB) and TK082 (b; BW25113 ΔleuB ΔssuEADCB ΔtauD) were grown in MS minimal medium supplemented with 0.5% glucose, 0.4 mM L-leucine, 1 mM MgCl2 and 1 mM of a sulfur source. TK080 was able to use the majority of the tested sulfur sources with a similar efficiency as sulfate. […] Dots represent the average of three independent measurements with standard deviations shown as error bars.
(§6) For the experiments relating to the sulfonate based synthetic transport system, unless stated otherwise, growth experiments in selective medium were carried out in sulfur free MS minimal medium (4 mM citric acid, 1 mM MgCl2, 20 mM NH4Cl, 50 mM KH2PO4 and 1×NTA mix (10 μM nitrilotriacetic acid, 3 μM CaCl2, 3 μM FeCl3, 1 μM MnCl2, 0.3 μM ZnCl2, 0.3 μM H3B3, 0.3 μM CrC3, 0.3 μM COCl2, 0.3 μM CuCl2, 0.3 μM Ni2C, 0.3 μM Na2MoO4, 0.3 μM Na2SeO3)) supplemented with 0.5% glucose. MgSO4 (1 mM), MgCl2 (1 mM), L-leucine (0.4 mM), IPTG (0.5 mM), aTc (100 ng mL-1), nicotinic acid (various concentrations), 3-picolylamine (various concentrations) and sulfonates (various concentrations) as indicated in the text. […] Synthesis schemes for sulfobutanoyl-p-nitroanilide and other sulfonates are given below.
The sulfonate transporters SsuABC and TauABC transport a wide variety of sulfonate compounds (Eichhorn et al., 2000) and can thus be exploited for the present synthetic transport system. As such, the uptake and utilization of sulfobutanoyl-L-leucine was assessed. The leucine auxotrophic strain BW25113 ΔleuB was tested for growth in minimal medium supplemented with 0.5% glucose, 0.4 mM leucine, 0.4 mM isoleucine and 1 mM of a sulfur-containing compound as the sole sulfur source.

TK082[pSsuABC] = experiment: Growth of leucine auxotrophic strain in liquid medium; format: cell-based, E. coli; conditions: liquid MS minimal medium, 0.25 mM compound, pACT3 versus pPnGGT*
BW25113 ΔleuB = experiment: Intracellular release of leucine from sulfobutanoyl-L-leucine, growth on plates; format: cell-based, E. coli; conditions: 2 mM compound, 0.5 mM taurine
Procedure: as §6
It was then tested if sulfobutanoyl-L-leucine can also be hydrolyzed intracellularly by GGT*. Strains BW25113 ΔleuB or BW25113 ΔleuB ΔssuD were transformed either with the empty vector pACT3 or the expression plasmids pACT3/EcGGT_ΔN24_D433N and pACT3/PnGGT_ΔN24_D405N. […] Taurine is taken up exclusively via TauABC and solely desulfonated by TauD. Addition of an excess of taurine should therefore not lead to competition with sulfobutanoyl-L-leucine for the SsuABC transporter and prevent TauD from using sulfobutanoyl-L-leucine as substrate, ensuring that the majority of sulfobutanoyl-L-leucine is hydroluzed by GGT*.

| SMILES | Km (PnGGT ΔN24 [1]) [mM] | Vmax (PnGGT ΔN24 [1]) [µmol/min/mg] | kcat (PnGGT ΔN24 [1]) [s⁻¹] | hydrolysis of substrate (PnGGT ΔN24 [2]) | Km (PnGGT ΔN24 D405N [3]) [mM] | Vmax (PnGGT ΔN24 D405N [3]) [µmol/min/mg] | kcat (PnGGT ΔN24 D405N [3]) [s⁻¹] | hydrolysis of substrate (EcGGT ΔN24) | hydrolysis of substrate (EcGGT ΔN24 D433N) | reactivity of PnGGT* to substrate (PnGGT ΔN24 D405N [4]) | increase in Vmax in comparison to PnGGT* (PnGGT* P505T) [%] | reduction in KM in comparison to PnGGT* (PnGGT* P505T) [%] | improvement of Vmax over PnGGT* (PnGGT* D385Y) [fold] | K value relative to K value with sulfobutanoyl-p-nitroanilide (PnGGT*) | growth with compound as sole sulfur source (BW25113 ΔleuB (TK080)) | growth with compound as sole leucine source (TK082[pSsuABC]) | growth with compound as leucine source (BW25113 ΔleuB; expressing EcGGT ΔN24 D433N) | growth with compound as leucine source (BW25113 ΔleuB; expressing PnGGT ΔN24 D405N) | growth with compound as leucine source (BW25113 ΔleuB; pACT3 empty vector control) |
| --- | --- | --- | --- | --- | --- | --- | --- | --- | --- | --- | --- | --- | --- | --- | --- | --- | --- | --- | --- |
| N[C@@H](CCC(=O)Nc1ccc([N+](=O)[O-])c(C(=O)O)c1)C(=O)O [γ-Glu-p-nitroanilide, L-glutamic acid γ-(3-carboxy-4-nitroanilide), reference compound] | 0.105 | 34.94 ± 0.47 | 34.5 | able to hydrolyze | 6.5 | 1.79 ± 0.61 | 1.8 | able to hydrolyze | still had detectable activity | no longer possesses significant reactivity |  |  |  |  |  |  |  |  |  |
| CC(C)C[C@H](NC(=O)CCCS(=O)(=O)O)C(=O)O [sulfobutanoyl-L-leucine] |  |  |  |  |  |  |  |  |  |  | 27 | 46 | 1.55 | approximately three times higher | comparable to growth on other sulfonates; also recorded: comparable efficiencies | only grew when cells were synthesizing PnGGT* | slower growth | grows best | weak growth |
